Reference: patent US6965048B2, “Hydroxyalkylamide derivatives” (Hoffmann-La Roche Inc., priority 2003, dated 2005)

## CN(CC[C@H]1CC[C@H](C(=O)N2CCC(C(N)=O)CC2)CC1)C(=O)Oc1ccc(Cl)cc1
  melting point: 162 to 165 °C (dec.)
